The record followed here is patent US20260356841A1, “HETEROCYCLIC PYRIDINONE COMPOUNDS AS TRIGGERING RECEPTOR EXPRESSED ON MYELOID CELLS 2 AGONISTS AND METHODS OF USE” (Vigil Neuroscience, Inc., priority 2023, published 2026).

The EC50 is the concentration needed to bring the measured effect to its halfway point.

The target in one test is T1, human TREM2 (Homo sapiens, UniProt Q9NZC2).
T1 construct: expressed in transfected cells; host or cells: HEK293T (HEK293T-hTREM2 cells)
T1 sequence (Q9NZC2 19-230): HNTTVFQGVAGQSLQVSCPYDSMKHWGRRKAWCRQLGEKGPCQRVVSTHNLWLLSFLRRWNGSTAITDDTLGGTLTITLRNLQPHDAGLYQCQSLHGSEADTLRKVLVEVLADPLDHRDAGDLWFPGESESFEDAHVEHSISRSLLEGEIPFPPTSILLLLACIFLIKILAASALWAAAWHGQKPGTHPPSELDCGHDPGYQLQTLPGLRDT
T1 sequence (O43914 22-113 partner): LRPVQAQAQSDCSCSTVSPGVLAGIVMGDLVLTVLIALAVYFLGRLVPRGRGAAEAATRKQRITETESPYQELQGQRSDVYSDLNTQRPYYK
The experiment in a line: TREM2 agonist potency by cellular phosphorylation of Spleen Tyrosine Kinase (Syk), AlphaLisa, HEK293T-hTREM2 cells. It is filed as cell-based.
Details: not given
The method, boiled down: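 HEK293T cells co-expressing human TREM2 and DAP12, plated 20–24 h before use. Compounds applied 45 min at room temperature in assay buffer, then cells lysed and phospho-Syk quantified by AlphaLisa. Percent activation from a standard curve; EC50 from a four-parameter variable-slope fit.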
In general terms: Alpha assays give light when donor and acceptor beads are brought close together.
`[2H]C([2H])([2H])C([2H])(n1cc([C@H]2C[C@@H](c3nc(C45CC(C(F)(F)F)(C4)C5)c4nc(C)c(C)nc4n3)CCO2)ccc1=O)C([2H])([2H])[2H]` [Example 88, 5-[(2R,4S)-4-[6,7-dimethyl-4-[3-(trifluoromethyl)-1-bicyclo[1.1.1]pentanyl]pteridin-2-yl]tetrahydropyran-2-yl]-1-[1,2,2,2-tetradeuterio-1-(trideuteriomethyl)ethyl]pyridin-2-one] displayed an EC50 of less than 100 nM.

The same test, now with this note: hTREM2 EC50 Data (HEK293 Cells); Syk phosphorylation, AlphaLisa; read-out: hTREM2 EC50.
Take `Cc1nc2nc(N3C[C@@H](C)O[C@@H](c4ccc(=O)n(C)c4)C3)nc(C34CC(C(N)=O)(C3)C4)c2nc1C` [Example 204, 3-[6,7-dimethyl-2-[(2R,6S)-2-methyl-6-(1-methyl-6-oxo-3-pyridyl)morpholin-4-yl]pteridin-4-yl]bicyclo[1.1.1]pentane-1-carboxamide]: the EC50 is greater than 500 nM.
For the compound `[2H]C([2H])([2H])c1nc2nc([C@H]3CCO[C@@H](c4ccc(=O)n(C5CC5)c4)C3)nc(C34CC(C(F)(F)F)(C3)C4)c2nc1C([2H])([2H])[2H]` [Example 201, 5-((2R,4S)-4-(6,7-bis(methyl-d3)-4-(3-(trifluoromethyl)bicyclo[1.1.1]pentan-1-yl)pteridin-2-yl)tetrahydro-2H-pyran-2-yl)-1-cyclopropylpyridin-2 (1H)-one], the EC50 was less than 100 nM.
On the same count and under the same terms, with `Cc1nc2nc([C@H]3CCO[C@@H](c4ccc(=O)n(C5COC5)c4)C3)nc(C34CC(C(F)(F)F)(C3)C4)c2nc1C` [Example 107, 5-[(2R,4S)-4-[6,7-dimethyl-4-[3-(trifluoromethyl)-1-bicyclo[1.1.1]pentanyl]pteridin-2-yl]tetrahydropyran-2-yl]-1-(oxetan-3-yl)pyridin-2-one] the figure was less than 100 nM; with `Cc1nc2nc([C@H]3CCO[C@@H](c4ccc(=O)n(C)c4)C3)nc(C34CC(C(F)(F)F)(C3)C4)c2cc1C(F)(F)F` [Example 326, 1-methyl-5-[(2R,4S)-4-[7-methyl-6-(trifluoromethyl)-4-[3-(trifluoromethyl)-1-bicyclo[1.1.1]pentanyl]pyrido[2,3-d]pyrimidin-2-yl]tetrahydropyran-2-yl]pyridin-2-one], less than 100 nM.
Take `Cc1nc2nc(N3C[C@@H](C)O[C@@H](c4ccc(=O)[nH]c4)C3)nc(C34CC(C(F)(F)F)(C3)C4)c2nc1C1COC1` [Example 195, 5-[(2S,6R)-6-methyl-4-[7-methyl-6-(oxetan-3-yl)-4-[3-(trifluoromethyl)-1-bicyclo[1.1.1]pentanyl]pteridin-2-yl]morpholin-2-yl]-1H-pyridin-2-one]: the EC50 is less than 100 nM.
For `Cc1nc2c(C34CC(C(F)(F)F)(C3)C4)nc([C@H]3CCO[C@@H](c4ccc(=O)n(N)c4)C3)nc2c(=O)n1C` (racemic) [Example 218, 2,3-dimethyl-6-[rac-(2R,4S)-2-(1-amino-6-oxo-3-pyridyl)tetrahydropyran-4-yl]-8-[3-(trifluoromethyl)-1-bicyclo[1.1.1]pentanyl]pyrimido[5,4-d]pyrimidin-4-one], the EC50 fell in the range of 100 to 500 nM.
On the same count and under the same terms, in the case of `Cc1nc2nc([C@H]3CCO[C@@H](c4ccc(=O)n(C)c4)C3)nc(C3CCC(F)(F)CC3)c2nc1C` [Example 28, 5-((2R,4S)-4-(4-(4,4-difluorocyclohexyl)-6,7-dimethylpteridin-2-yl)tetrahydro-2H-pyran-2-yl)-1-methylpyridin-2 (1H)-one] it was less than 100 nM; in that of `Cc1nc2nc([C@H]3CCO[C@@H](c4ccc(=O)[nH]c4)C3)nc(C34CC(C(F)(F)F)(C3)C4)c2cc1C(F)(F)F` [Example 330, 5-((2R,4S)-4-(7-methyl-6-(trifluoromethyl)-4-(3-(trifluoromethyl)bicyclo[1.1.1]pentan-1-yl)pyrido[2,3-d]pyrimidin-2-yl)tetrahydro-2H-pyran-2-yl)pyridin-2(1H)-one], less than 100 nM; in that of `Cc1nc2nc([C@H]3CCO[C@@H](c4ccc(=O)n(C5CCC5)c4)C3)nc(C34CC(C(F)(F)F)(C3)C4)c2nc1C` [Example 94, 1-cyclobutyl-5-[(2R,4S)-4-[6,7-dimethyl-4-[3-(trifluoromethyl)-1 bicyclo[1.1.1]pentanyl]pteridin-2-yl]tetrahydropyran-2-yl]pyridin-2-one], less than 100 nM.
Still for that read-out and setting: in the case of `Cc1nc2c(C34CC(C(F)(F)F)(C3)C4)nc(N3C[C@@H](C)O[C@@H](c4ccc(=O)n(C5CC5)c4)C3)nc2c(=O)n1C` [Example 219] it was less than 100 nM; in that of `Cc1nc2nc([C@H]3CCO[C@@H](c4ccc(=O)n(C)c4)C3)nc(C34CC(C(C)(C)F)(C3)C4)c2nc1C` [Example 52, 5-[(2R,4S)-4-[4-[3-(1-fluoro-1-methyl-ethyl)-1-bicyclo[1.1.1]pentanyl]-6,7-dimethyl-pteridin-2-yl]tetrahydropyran-2-yl]-1-methyl-pyridin-2-one], less than 100 nM.
Still for that read-out and setting: with `Cc1nc2nc([C@@H]3CCO[C@H](c4ccc(=O)n(C5CC5)c4)C3)nc(-c3ccc(C(F)(F)F)cc3F)c2nc1C` [Example 65, 1-cyclopropyl-5-[(2S,4R)-4-[4-[2-fluoro-4-(trifluoromethyl)phenyl]-6,7-dimethyl-pteridin-2-yl]tetrahydropyran-2-yl]pyridin-2-one] the figure was less than 100 nM; with `Cc1nc2nc([C@@H]3CCO[C@H](c4ccc(=O)n(C)c4)C3)nc(-c3ccc(F)cc3F)c2nc1C` [Example 2, 5-[(2S,4R)-4-[4-(2,4-difluorophenyl)-6,7-dimethyl-pteridin-2-yl]tetrahydropyran-2-yl]-1-methyl-pyridin-2-one], greater than 500 nM; with `C=CC(=O)Nn1cc([C@H]2C[C@@H](c3nc(C45CC(C(F)(F)F)(C4)C5)c4nc(C)c(C)nc4n3)CCO2)ccc1=O` [Example 213, N-[5-[(2R,4S)-4-[6,7-dimethyl-4-[3-(trifluoromethyl)-1-bicyclo[1.1.1]pentanyl]pteridin-2-yl]tetrahydropyran-2-yl]-2-oxo-1-pyridyl]prop-2-enamide], less than 100 nM.
For `Cc1nc2nc(N3C[C@@H](C)O[C@@H](c4ccc(=O)n(C)c4)C3)nc(-c3ccc(F)cc3F)c2nc1C` [Example 16, 5-[(2S,6R)-4-[4-(2,4-difluorophenyl)-6,7-dimethyl-pteridin-2-yl]-6-methyl-morpholin-2-yl]-1-methyl-pyridin-2-one], the EC50 is less than 100 nM.
Regarding `Cc1nc2nc([C@H]3C[C@@H](C)O[C@@H](c4ccc(=O)n(C5CC5)c4)C3)nc(C34CC(C(F)(F)F)(C3)C4)c2nc1C` [Example 102, 1-cyclopropyl-5-[(2R,4S,6R)-4-[6,7-dimethyl-4-[3-(trifluoromethyl)-1-bicyclo[1.1.1]pentanyl]pteridin-2-yl]-6-methyl-tetrahydropyran-2-yl]pyridin-2-one], the EC50 was less than 100 nM.
Regarding `Cc1nc2nc([C@@H]3CCO[C@H](c4ccc(=O)n(C)c4)C3)nc(C34CC(C(F)F)(C3)C4)c2nc1C` [Example 32, 5-[(2S,4R)-4-[4-[3-(difluoromethyl)-1-bicyclo[1.1.1]-pentanyl]-6,7-dimethyl-pteridin-2-yl]tetrahydropyran-2-yl]-1-methyl-pyridin-2-one], the 50% effective concentration (EC50) fell in the range of 100 to 500 nM.
Still for that read-out and setting: in the case of `CNn1cc([C@H]2CN(c3nc(-c4ccc(F)cc4F)c4sc(N(C)C)nc4n3)C[C@@H](C)O2)ccc1=O` [Example 175, 5-[(2S,6R)-4-[7-(2,4-difluorophenyl)-2-(dimethylamino)thiazolo[4,5-d]pyrimidin-5-yl]-6-methyl-morpholin-2-yl]-1-(methylamino)pyridin-2-one] it was less than 100 nM; in that of `Cc1nc2nc([C@@H]3CCO[C@@H](c4ccc(=O)n(C)c4)C3)nc(-c3cc(F)c(C(F)(F)F)cc3F)c2nc1C` [Example 348], greater than 500 nM.
For the compound `Cc1nc2nc([C@H]3CCO[C@H](c4cnc(=O)n(C)c4)C3)nc(C34CC(C(F)(F)F)(C3)C4)c2nc1C` [Example 163, 1-methyl-5-[(2S,4S)-4-[6,7-dimethyl-4-[3-(trifluoromethyl)-1-bicyclo[1.1.1]pentanyl]pteridin-2-yl]tetrahydropyran-2-yl]pyrimidin-2-one], the EC50 was less than 100 nM.
On the same count and under the same terms, in the case of `Cc1nc2nc([C@@H]3CCO[C@H](c4ccc(=O)n(C)c4)C3)nc(C34CC(C(F)(F)F)(C3)C4)c2nc1C1CC1` [Example 159, 1-methyl-5-[(2S,4R)-4-[6-cyclopropyl-7-methyl-4-[3-(trifluoro-methyl)-1-bicyclo[1.1.1]pentanyl]pteridin-2-yl]tetrahydropyran-2-yl]pyridin-2-one] it was less than 100 nM.
As for `Cc1nc2nc(N3C[C@@H](C)O[C@@H](c4ccc(=O)n(C)c4)C3)nc(C34CC(C#N)(C3)C4)c2nc1C` [Example 205, 3-[6,7-dimethyl-2-[(2R,6S)-2-methyl-6-(1-methyl-6-oxo-3-pyridyl)morpholin-4-yl]pteridin-4-yl]bicyclo[1.1.1]pentane-1-carbonitrile], the EC50 is less than 100 nM.
Regarding `Cc1nc2nc([C@@H]3CCO[C@H](c4ccc(=O)n(C)c4)C3)cc(C34CC(C(F)(F)F)(C3)C4)c2nc1C` [Example 168, 1-methyl-5-[(2S,4R)-4-[2,3-dimethyl-8-[3-(trifluoromethyl)-1-bicyclo[1.1.1]pentanyl]pyrido[2,3-b]pyrazin-6-yl]tetrahydropyran-2-yl]pyridin-2-one], the EC50 is less than 100 nM.
The same measure, in the same setting: with `Cc1nc2nc([C@H]3CCO[C@@H](c4ccc(=O)n(N(C)C)c4)C3)nc(C34CC(C(F)(F)F)(C3)C4)c2nc1C` [Example 178, 1-(dimethylamino)-5-[(2R,4S)-4-[6,7-dimethyl-4-[3-(trifluoromethyl)-1-bicyclo[1.1.1]pentanyl]pteridin-2-yl]tetrahydropyran-2-yl]pyridin-2-one] the figure was less than 100 nM.
`CNn1cc([C@H]2C[C@@H](c3nc(C45CC(C(F)(F)F)(C4)C5)c4nc(C)c(C)nc4n3)CCO2)ccc1=O` [Example 179, 5-[(2R,4S)-4-[6,7-dimethyl-4-[3-(trifluoromethyl)-1-bicyclo[1.1.1]pentanyl]pteridin-2-yl]tetrahydropyran-2-yl]-1-(methylamino)pyridin-2-one]: the EC50 was less than 100 nM.
With `Cc1nc2nc([C@@H]3CCO[C@H](c4ccc(=O)n(C)c4)C3)nc(-c3cc(F)c(C(F)(F)F)cc3F)c2nc1C` [Example 349], the EC50 was greater than 500 nM.
